According to patent US9233090B2, “Cysteine and food intake” (Nestec S.A., priority 2010, dated 2016):

Experiments:
Format in all cases: in vivo, rat
[1] = Skeletal muscle and organ weights of old rats fed supplemented diets; conditions: for Colon weight / EDL weight / Gastrocnemius weight / Kidneys weight / Liver weight / Small intestine weight / Soleus weight / Tibialis weight: end of supplementation
Description: (§1) A cohort of male Wistar rats born and breed in a non-specific-pathogen-free animal facility (Unité de Nutrition Comparée, INRA Theix) was used for the study. When rats were 18 month old they were weighted monthly to evaluate their body weight change and blood was sampled in order to quantify inflammatory markers (acute phase proteins: α2-macroglobulin and fibrinogen). At the age of 21 months, rats were divided in two groups matched for body weight, body weight loss, and inflammatory status. Rats were fed with supplemented diets, starting at the age of 21 months and for 14 weeks. The cysteine diet consisted in the commercial pelleted diet A04 (SAFE/UAR, Scientific Animal Food and Engineering, Villemoisson-sur-Orge, France) supplemented with 4.0 g of L-cysteine (Sigma) per kg, and the control diet was supplemented with 2.9 g of L-alanine (Jerafrance) per kg (iso-nitrogenous diets). Experimental diets have been prepared at the Unite Préparation Aliments Expérimentaux, INRA Jouy-en-Josas.

old rats [2] = assay: Food intake of old rats fed supplemented diets for 14 weeks; conditions: for decrease in food intake per week: male Wistar rats, supplemented diet from age 21 months for 14 weeks, linear regression
Description: as §1
Food intake (FIG. 4) decreased with time and was lower for the alanine diet.

[3] = Body weight of old rats fed supplemented diets; conditions: for Final BW: body weight at end of supplementation; for Initial BW: body weight at start of supplementation (baseline), age 21 months; for BW change: rat, in vivo
Description: as §1
The decrease accelerated at the end of the experiment since body weights of the two last weeks were different from each of the previous ones.

old rats [4] = assay: Survival of old rats fed supplemented diets (Kaplan-Meier, log-rank test); conditions: male Wistar rats, supplemented diet from age 21 months for 14 weeks; log-rank test=0.054, P=0.816
Description: as §1
Survival curves were generated by Kaplan-Meier method (FIG. 2) and compared by the log-rank test in order to analyze the effect of cysteine supplementation on mortality.

Structure (SMILES) | Colon weight [1] [g] | EDL weight [1] [mg] | Gastrocnemius weight [1] [g] | Kidneys weight [1] [g] | Liver weight [1] [g] | Small intestine weight [1] [g] | Soleus weight [1] [mg] | Tibialis weight [1] [mg] | decrease in food intake per week (old rats [2]) | Final BW [3] [g] | Initial BW [3] [g] | BW change [3] [%/13 wk] | liver weight compared with control rats ([1]; cysteine supplemented rats vs alanine control) | effect on decrease in food intake associated with aging (old rats [2]; 4 g cysteine per kg supplemented diet, rats about 22.5 months old) | mortality rate (old rats [4])
C[C@H](N)C(=O)O [Alanine, L-alanine, reference compound] | 2.68 ± 0.06 | 222 ± 4 | 2.51 ± 0.04 | 4.32 ± 0.19 | 18.4 ± 0.5 | 11.4 ± 0.3 | 177 ± 3 | 888 ± 16 | 0.96 % per week | 595 ± 13 | 657 ± 10 | −7.03 ± 1.60 | – | – | –
N[C@@H](CS)C(=O)O [Cysteine, L-cysteine] | 2.76 ± 0.07 | 228 ± 4 | 2.51 ± 0.04 | 4.31 ± 0.17 | 20.0 ± 0.4 | 12.0 ± 0.2 | 178 ± 4 | 889 ± 18 | unchanged | 613 ± 12 | 661 ± 10 | −6.27 ± 1.18 | higher liver weight than control rats | blunts the decrease in food intake | did not change
